Drawing on patent publication EP2582674B1 (Cymabay Therapeutics, Inc., priority 2010, dated 2011), this text covers activity and EC50 for 24 compounds.

SMILES strings stand for the structures.

Broadly, the EC50 is the concentration that produces a half-maximal response.

For one experiment, the target named is T1, human GPR120 (Homo sapiens, UniProt Q5NUL3).
T1 construct: host or cells: HEK293 cells co-expressing Gqi5
T1 sequence (Q5NUL3 1-361): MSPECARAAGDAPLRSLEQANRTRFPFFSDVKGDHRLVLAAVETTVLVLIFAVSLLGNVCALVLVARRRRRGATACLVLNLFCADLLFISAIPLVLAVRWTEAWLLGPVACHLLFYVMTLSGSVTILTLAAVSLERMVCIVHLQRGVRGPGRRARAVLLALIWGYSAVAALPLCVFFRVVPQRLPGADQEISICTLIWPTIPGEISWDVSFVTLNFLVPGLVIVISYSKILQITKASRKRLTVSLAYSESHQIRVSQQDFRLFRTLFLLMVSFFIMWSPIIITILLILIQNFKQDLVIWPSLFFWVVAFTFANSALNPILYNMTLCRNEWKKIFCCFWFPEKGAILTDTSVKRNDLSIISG
As to the kind of experiment: Intracellular Ca2+ assay in human GPR120 stable cell line (FLIPR Calcium 4 dye, Flexstation). Format: cell-based. The settings on record: HEK293, % activity at 2.5 µM compared to the maximal activity of the compound of Example 25 at 2.5 µM (=100%); HEK293 cells co-expressing Gqi5; read-out: % Activity (Ex. 25 Reference Compound). As to the method:
Human GPR120 stable cell line was purchased from Multispan Inc (26219 Eden Landing Road, Hayward, CA94545). This GPR120 cell line was generated in HEK293 cells co-expressing Gqi5. In this cell line, the Flag epitope tag (DYKDDDDK) was fused to the amino terminus of human GPR120 protein.
The concentration of intracellular Ca^2+ was measured as described below. Human GPR120 cells were plated in 96 well plates (Poly-D-Lysine coated black/clear Plate, Greiner Bio-One) at 70,000 cells per well and cultured overnight in conditions of 37°C and 5% CO2. A Ca^2+ assay dye stock solution was prepared by adding 10 mL of assay buffer (HBSS/20mM HEPES, pH 7.4) to FLIPR Calcium 4 Assay Bulk Kit (Molecular Devices). The 10 mL of Ca^2+ assay dye solution was prepared by further diluting 0.5 mL of Ca^2+ assay dye stock solution with 10 mL of assay buffer. The medium of the cells was removed and immediately 100 µL of the Ca^2+ assay dye solution was dispensed into each well followed by incubation at 37°C and 5% CO2 for 50 minutes to incorporate the Ca^2+ dye into the cells. The cell plate was then placed in the Flexstation (Molecular Devices) for 20 minutes at 37°C. Compounds were dissolved in 100% DMSO and diluted to desired concentrations with assay buffer and placed in the Flexstation simultaneously with the cell plate for 20 minute incubation at 37°C prior to reading. Fluorescence intensity was measured immediately following compound addition (25 µL/well) on the Flexstation at an excitation wavelength of 485 nm and an emission wavelength of 525 with 515 nm auto cutoff. The resulting increase in fluorescence intensities corresponds to increases in intracellular Ca^2+ levels.
Compounds were dissolved in 100% DMSO to a concentration of 20 mM to provide stock solutions. To determine activity against human GPR120, compounds were added with human GPR120 stably expressing cells (described above), at eight desired concentrations ranging from 0.00001 to 20 µM, in 96 well plates and fluorescence intensities were measured for 90 seconds with 2-second intervals. An EC50 value (concentration of the GPR120 agonist where 50% of the agonist's maximal activity is observed) was calculated using the changes (Max-Min) of fluorescence intensity.
To determine percent activity for a tested compound, the fluorescence intensity value obtained at a particular concentration were compared to the maximal fluorescence intensity value obtained for reference compound GW9508 (4-[[(3-phenoxyphenyl)methyl]amino]benzene propanoic acid; British Journal of Pharmacology 2006 148, 619-628) or the compound of Example 25. When GW9508 was used as the reference compound, the maximal activity of GW9508 at 6.7µM was designated as 100% activity. When the compound of Example 25 was used as the reference compound, the maximal activity of the compound of Example 25 at 2.5 µM was designated as 100% activity. Typically, the GW9508 activity reached a maximum at a concentration of approximately 6.7 µM and typically the compound of Example 25 reached a maximum activity at approximately 2.5µM. […]
In the case of `CC(=O)NCCOC(=O)C(C)Cc1ccc(OCc2cc(Cl)cc3c2OC(C)(C)C3)c(C(F)(F)F)c1` (stereo not drawn) [Example 126, 2-acetamidoethyl 3-(4-((5-chloro-2,2-dimethyl-2,3-dihydrobenzofuran-7-yl)methoxy)-3-(trifluoromethyl)phenyl)-2-methylpropanoate], the activity at 2.5 µM came to 47%. Still for that read-out and setting: next, `CC(Cc1ccc(OCc2cc(F)cc3c2OC(C)(C)C3)cc1)C(=O)NO` (stereo not drawn) [Example 264, 3-(4-((5-fluoro-2,2-dimethyl-2,3-dihydrobenzofuran-7-yl)methoxy)phenyl)-N-hydroxy-2-methylpropanamide]: 110%.

As for `CC1(C)Cc2cc(F)cc(COc3cc(Cl)c(CCC(=O)O)c(Cl)c3)c2O1` [Example 197, 3-(2,6-dichloro-4-((5-fluoro-2,2-dimethyl-2,3-dihydrobenzofuran-7-yl)methoxy)phenyl)propanoic acid], the activity at 2.5 µM is 151%. Still for that read-out and setting: then `[2H]C([2H])(Oc1ccc(CC(C)C(=O)O)cc1C(F)(F)F)c1cc(F)cc2c1OC(C)(C)C2` (stereo not drawn) [Example 231, 3-(4-(dideuterio(5-fluoro-2,2-dimethyl-2,3-dihydrobenzofuran-7-yl)methoxy)-3-(trifluoromethyl)phenyl)-2-methylpropanoic acid], with 101%; and `Cc1cc2cccc(COc3c(F)cc(CC(C)C(=O)O)cc3F)c2s1` (stereo not drawn) [Example 151, 3-(3,5-difluoro-4-((2-methylbenzo[b]thiophen-7-yl)methoxy)phenyl)-2-methylpropanoic acid], with 117%; and `CC1(C)Cc2cc(Cl)cc(COc3ccc4c(c3)CC[C@H]4CC(=O)O)c2O1` [Example 176, (S)-2-(5-((5-chloro-2,2-dimethyl-2,3-dihydrobenzofuran-7-yl)methoxy)-2,3-dihydro-1H-inden-1-yl)acetic acid], with 138%. Same read-out and setting: then `C[C@H](Cc1ccc(OCc2cc(Cl)cc3c2OC(C)(C)C3)c(C(F)(F)F)c1)C(=O)O` [Example 143, (R)-3-(4-((5-chloro-2,2-dimethyl-2,3-dihydrobenzofuran-7-yl)methoxy)-3-(trifluoromethyl)phenyl)-2-methylpropanoic acid], with 90.6%; and `CC(C)Oc1cc(OCc2cc(F)cc3c2OC(C)(C)C3)ccc1CCC(=O)O` [Example 115, 3-(4-((5-fluoro-2,2-dimethyl-2,3-dihydrobenzofuran-7-yl)methoxy)-2-isopropoxyphenyl)propanoic acid], with 152%; and `CC1(C)Cc2cc(F)cc(COc3ccc(CCC(=O)O)c(OC(F)(F)F)c3)c2O1` [Example 136, 3-(4-((5-fluoro-2,2-dimethyl-2,3-dihydrobenzofuran-7-yl)methoxy)-2-(trifluoromethoxy)phenyl)propanoic acid], with 141%. On the same count and under the same terms, next, `CC(=O)Nc1cc(COc2ccc(CC(C)C(=O)O)cc2)c2c(c1)CC(C)(C)O2` (stereo not drawn) [Example 123, 3-(4-((5-acetamido-2,2-dimethyl-2,3-dihydrobenzofuran-7-yl)methoxy)phenyl)-2-methylpropanoic acid]: 47%; `CC(Cc1ccc(NC(=O)c2cc(F)cc3c2OC(C)(C)C3)cc1)C(=O)O` (stereo not drawn) [Example 68, 3-(4-(5-fluoro-2,2-dimethyl-2,3-dihydrobenzofuran-7-carboxamido)phenyl)-2-methylpropanoic acid]: 69%; `CC1(C)Cc2cc(F)cc(COc3ccc(CC(=O)O)cc3)c2O1` [Example 133, 2-(4-((5-fluoro-2,2-dimethyl-2,3-dihydrobenzofuran-7-yl)methoxy)phenyl)acetic acid]: 103%. As for `CC(C)Oc1ccc(Cl)cc1COc1cc2c(cc1F)C(CC(=O)O)CC2` (stereo not drawn) [Example 257, 2-(5-((5-chloro-2-isopropoxybenzyl)oxy)-6-fluoro-2,3-dihydro-1H-inden-1-yl)acetic acid], the activity at 2.5 µM is 125%. Still for that read-out and setting: next, `[2H]C1([2H])c2cc(Cl)cc(COc3ccc(CC(C)C(=O)O)cc3C(F)(F)F)c2OC1(C)C` (stereo not drawn) [Example 147, 3-(4-((3,3-dideuterio-5-chloro-2,2-dimethyl-2,3-dihydrobenzofuran-7-yl)methoxy)-3-(trifluoromethyl)phenyl)-2-methylpropanoic acid]: 139%.

In the case of `CC1(C)Cc2cc(F)cc(COc3ccc4c(CC(=O)O)coc4c3)c2O1` [Example 262, 2-(6-((5-fluoro-2,2-dimethyl-2,3-dihydrobenzofuran-7-yl)methoxy)benzofuran-3-yl)acetic acid], the activity at 2.5 µM came out at 137%. Still for that read-out and setting: then `CC(Cc1cc(F)c(OCc2cc(Cl)cc3c2OC(C)C3(C)C)c(F)c1)C(=O)O` (stereo not drawn) [Example 109, 3-(4-((5-chloro-2,3,3-trimethyl-2,3-dihydrobenzofuran-7-yl)methoxy)-3,5-difluorophenyl)-2-methylpropanoic acid], with 72.4%; and `CC(Cc1ccc(OCc2cc(F)cc3c2OC2(CCCC2)C3)cc1)C(=O)O` (stereo not drawn) [Example 162, 3-(4-((5-fluoro-3H-spiro[benzofuran-2,1'-cyclopentane]-7-yl)methoxy)phenyl)-2-methylpropanoic acid], with 154%. In the case of `CC1(C)Cc2c(COc3ccc4c(c3)CC[C@@H]4CC(=O)O)cc(F)cc2O1` [Example 188, (R)-2-(5-((6-fluoro-2,2-dimethyl-2,3-dihydrobenzofuran-4-yl)methoxy)-2,3-dihydro-1H-inden-1-yl)acetic acid], the activity at 2.5 µM turned out to be 104%. As to `COc1cc(OCc2cc(Cl)cc3c2OC2(CCCC2)C3)ccc1CCC(=O)O` [Example 194, 3-(4-((5-chloro-3H-spiro[benzofuran-2,1'-cyclopentane]-7-yl)methoxy)-2-methoxyphenyl)propanoic acid], the activity at 2.5 µM is 148%. Regarding `CC(Cc1cc(F)c(OCc2cc(OCc3ccccc3)cc3c2OC(C)(C)C3)c(F)c1)C(=O)O` (stereo not drawn) [Example 111, 3-(4-((5-(benzyloxy)-2,2-dimethyl-2,3-dihydrobenzofuran-7-yl)methoxy)-3,5-difluorophenyl)-2-methylpropanoic acid], the activity at 2.5 µM stood at 51.5%.

The experiment is the same for the next values; noted with them: HEK293, % activity at 5 µM compared to the maximal activity of GW9508 at 6.7 µM (=100%); HEK293 cells co-expressing Gqi5; read-out: %Activity (GW9508 Reference Compound).
As to `CC(Cc1cc(F)c(OCc2ccc(F)c3c2OC(C)(C)C3)c(F)c1)C(=O)O` (stereo not drawn) [Example 28, 3-(3,5-difluoro-4-((4-fluoro-2,2-dimethyl-2,3-dihydrobenzofuran-7-yl)methoxy)phenyl)-2-methylpropanoic acid], the activity at 5 µM amounted to 110%.

Consider `Cc1cc(CC(C)C(=O)O)ccc1OCc1cc(Cl)cc2c1OC(C)(C)C2` (stereo not drawn) [Example 11, 3-(4-((5-chloro-2,2-dimethyl-2,3-dihydrobenzofuran-7-yl)methoxy)-3-methylphenyl)-2-methylpropanoic acid], for which the activity at 5 µM was 124%. The same measure, in the same setting: then `Cc1cc(CC(C)C(=O)O)ccc1OCc1cc(F)cc2c1OC(C)(C)C2` (stereo not drawn) [Example 6, 3-(4-((5-fluoro-2,2-dimethyl-2,3-dihydrobenzofuran-7-yl)methoxy)-3-methylphenyl)-2-methylpropanoic acid], with 147%.

Consider `CC(Cc1ccc(OCc2cccc3c2CC(C)(C)O3)cc1)C(=O)O` (stereo not drawn) [Example 17, 3-(4-((2,2-dimethyl-2,3-dihydrobenzofuran-4-yl)methoxy)phenyl)-2-methylpropanoic acid], for which the activity at 5 µM turned out to be 72.2%.

Still in this experiment, the particulars now being: eight concentrations from 0.00001 to 20 µM; changes (Max-Min) of fluorescence intensity.
As for `CC(=O)Nc1cc(COc2ccc(CC(C)C(=O)O)cc2)c2c(c1)CC(C)(C)O2` (stereo not drawn) [Example 123, 3-(4-((5-acetamido-2,2-dimethyl-2,3-dihydrobenzofuran-7-yl)methoxy)phenyl)-2-methylpropanoic acid], the EC50 lay in the range of 1 to 10 µM.

In the case of `CC1(C)Cc2cc(F)cc(COc3ccc(CC(=O)O)cc3)c2O1` [Example 133, 2-(4-((5-fluoro-2,2-dimethyl-2,3-dihydrobenzofuran-7-yl)methoxy)phenyl)acetic acid], the EC50 was 1 to 10 µM.

For the compound `CC(Cc1cc(F)c(OCc2cc(OCc3ccccc3)cc3c2OC(C)(C)C3)c(F)c1)C(=O)O` (stereo not drawn) [Example 111, 3-(4-((5-(benzyloxy)-2,2-dimethyl-2,3-dihydrobenzofuran-7-yl)methoxy)-3,5-difluorophenyl)-2-methylpropanoic acid], the EC50 lay in the range of 1 to 10 µM.
